Experimental data taken from patent US4868176A, “Novel imidazobenzodiazepines” (Roussel Uclaf, priority 1987, dated 1989).

Test system: leptazol induced seizures in mice
Experiment: potentiation of the threshold of leptazol induced seizures in mice
Format: in vivo
Conditions: ip
Procedure: Potentiation of the threshold of leptazol induced seizures in mice by active compounds was measured by the method of Lichfiel et al (J. Pharmacol. Exp. Ther. (1949) Vol. 96 Page. 99).

SMILES | ED50 (Mus musculus) [mg/kg] | Leptazol Seizures ED50
CN1Cc2c(C(=O)C3CC3)ncn2-c2ccccc2C1=O [Compound 1, 3-(5,6-dihydro-5-methyl-6-oxo-4H-imidazo[1,5a][1,4]benzodiazepinyl)-cyclopropylmethanone] | 1 to 2 | –
CN1Cc2c(C(=O)C3CC3)ncn2-c2ccc(Cl)cc2C1=O [Compound 2, (8-Chloro-5,6-dihydro-5-methyl-6-oxo-4H-imidazo[1,5-a][1,4]benzodiazepin-3-yl)-cyclopropylmethanone] | – | Not active
